# How the values were obtained:
# Assay type in all cases: functional
# [1] = system: HOP-92; assay: Growth inhibition of human HOP92 cells after 48 hrs by […] growth inhibition assay; settings: HOP-92, 48 h
# [2] = system: HCC 2998; assay: Growth inhibition of human HCC2998 cells after 48 hrs by […] growth inhibition assay; settings: HCC 2998, 48 h
# [3] = system: 786-0; assay: Growth inhibition of human 786-0 cells assessed as cell growth at 10 uM after 48 hrs by SRB assay; settings: 786-0, 48 h, read-out: Activity
# [4] = system: NCI-H460; assay: Growth inhibition of human NCI-H460 cells assessed as cell growth at 0.1 uM after 48 hrs by SRB assay; settings: NCI-H460, 48 h, read-out: Activity
# [5] = system: NCI-H226; assay: Growth inhibition of human NCI-H226 cells assessed as cell growth at 1 uM after 48 hrs by SRB assay; settings: NCI-H226, 48 h, read-out: Activity
# [6] = system: HCT-15; assay: Growth inhibition of human HCT15 cells assessed as cell growth at 10 uM after 48 hrs by SRB assay; settings: HCT-15, 48 h, read-out: Activity
# [7] = system: SF-295; assay: Growth inhibition of human SF295 cells assessed as cell growth at 100 uM after 48 hrs by SRB assay; settings: SF-295, 48 h, read-out: Activity
# [8] = system: EKVX; assay: Growth inhibition of human EKVX cells assessed as cell growth at 10 uM after 48 hrs by SRB assay; settings: read-out: Activity
# [9] = system: OVCAR-3; assay: Growth inhibition of human OVCAR3 cells assessed as cell growth at 0.1 uM after 48 hrs by SRB assay; settings: OVCAR-3, 48 h, read-out: Activity
# [10] = system: MCF7; assay: Growth inhibition of human MCF7 cells after 48 hrs by […] growth inhibition assay; settings: MCF7, 48 h
# [11] = system: LOX IMVI; assay: Growth inhibition of human LOXIMVI cells assessed as cell growth at 100 uM after 48 hrs by SRB assay; settings: read-out: Activity
# [12] = system: Malme-3M; assay: Growth inhibition of human MALME-3M cells assessed as cell growth at 1 uM after 48 hrs by SRB assay; settings: read-out: Activity
# [13] = system: CAKI-1; assay: Growth inhibition of human Caki1 cells assessed as cell growth at 0.1 uM after 48 hrs by SRB assay; settings: CAKI-1, 48 h, read-out: Activity
# [14] = system: RXF 393; assay: Growth inhibition of human RXF393 cells assessed as cell growth at 1 uM after 48 hrs by SRB assay; settings: RXF 393, 48 h, read-out: Activity
# [15] = system: SK-OV-3; assay: Growth inhibition of human SKOV3 cells after 48 hrs by […] growth inhibition assay; settings: SK-OV-3, 48 h
# [16] = system: MDA-MB-435; assay: Growth inhibition of human MDA-MB-435 cells assessed as cell growth at 100 uM after 48 hrs by SRB assay; settings: MDA-MB-435, 48 h, read-out: Activity
# [17] = system: UACC-62; assay: Growth inhibition of human UACC62 cells after 48 hrs by […] growth inhibition assay; settings: UACC-62, 48 h
# [18] = system: SF-268; assay: Growth inhibition of human SF268 cells assessed as cell growth at 1 mM after 48 hrs by SRB assay; settings: SF-268, 48 h, read-out: Activity
# [19] = system: SN12C; assay: Growth inhibition of human SN12C cells after 48 hrs by […] growth inhibition assay
# [20] = system: RXF 393; assay: Growth inhibition of human RXF393 cells assessed as cell growth at 10 uM after 48 hrs by SRB assay; settings: RXF 393, 48 h, read-out: Activity
# [21] = system: OVCAR-5; assay: Growth inhibition of human OVCAR5 cells assessed as cell growth at 0.1 uM after 48 hrs by SRB assay; settings: OVCAR-5, 48 h, read-out: Activity
# [22] = system: MDA-MB-468; assay: Growth inhibition of human MDA-MB-468 cells after 48 hrs by […] growth inhibition assay; settings: MDA-MB-468, 48 h, read-out: LC50 (the source's name)
# [23] = system: LOX IMVI; assay: Growth inhibition of human LOXIMVI cells assessed as cell growth at 0.1 uM after 48 hrs by SRB assay; settings: read-out: Activity
# [24] = system: NCI-H322M; assay: Growth inhibition of human NCI-H322M cells assessed as cell growth at 1 mM after 48 hrs by SRB assay; settings: read-out: Activity
# [25] = system: SK-OV-3; assay: Growth inhibition of human SKOV3 cells assessed as cell growth at 0.1 uM after 48 hrs by SRB assay; settings: SK-OV-3, 48 h, read-out: Activity
# [26] = system: UACC-257; assay: Growth inhibition of human UACC257 cells assessed as cell growth at 1 uM after 48 hrs by SRB assay; settings: UACC-257, 48 h, read-out: Activity
# [27] = system: NCI-H522; assay: Growth inhibition of human NCI-H522 cells assessed as cell growth at 10 uM after 48 hrs by SRB assay; settings: NCI-H522, 48 h, read-out: Activity
# [28] = system: IGROV-1; assay: Growth inhibition of human IGROV1 cells assessed as cell growth at 1 uM after 48 hrs by SRB assay; settings: IGROV-1, 48 h, read-out: Activity
# [29] = system: HCT-15; assay: Growth inhibition of human HCT15 cells assessed as cell growth at 100 uM after 48 hrs by SRB assay; settings: HCT-15, 48 h, read-out: Activity
# [30] = system: CCRF-CEM; assay: Growth inhibition of human CCRF-CEM cells assessed as cell growth at 100 uM after 48 hrs by SRB assay; settings: read-out: Activity
# [31] = system: OVCAR-3; assay: Growth inhibition of human OVCAR3 cells assessed as cell growth at 100 uM after 48 hrs by SRB assay; settings: OVCAR-3, 48 h, read-out: Activity
# [32] = system: HCC 2998; assay: Growth inhibition of human HCC2998 cells assessed as cell growth at 1 mM after 48 hrs by SRB assay; settings: HCC 2998, 48 h, read-out: Activity
# [33] = system: NCI-H460; assay: Growth inhibition of human NCI-H460 cells assessed as cell growth at 1 mM after 48 hrs by SRB assay; settings: NCI-H460, 48 h, read-out: Activity
# [34] = read-out: LC50 (the source's name)
# [35] = read-out: pLC50 (the source's name) (converted)
smiles,measurement,setting,value
CCOC(=O)C[C@H]1[C@@H](O[Si](C)(C)C(C)(C)C)[C@H](n2cnc3c(NC(=O)Nc4ccccc4)ncnc32)O[C@@H]1CNC(=O)NC,GI50,[1]; read-out: GI50,< 0.01 µM
same,CC50,[1]; [34],41.2 µM
same,GI50,[1]; read-out: pGI50 (converted),< 0.01 µM
same,CC50,[1]; [35],40.7 µM
same,GI50,[2]; read-out: GI50,> 100 µM
same,CC50,[2]; [34],> 100 µM
same,TGI,[2]; read-out: TGI,> 100 µM
same,GI50,[2]; read-out: pGI50 (converted),> 100 µM
same,CC50,[2]; [35],> 100 µM
same,TGI,[2]; read-out: pTGI (converted),> 100 µM
same,growth at 10 µM,[3],86%
same,growth at 0.1 µM,[4],102%
same,growth at 1 µM,[5],105%
same,growth at 10 µM,[6],94%
same,growth at 100 µM,[7],38%
same,growth at 10 µM,[8],91%
same,growth at 0.1 µM,[9],114%
same,GI50,[10]; read-out: GI50,3.42 µM
same,CC50,[10]; [34],> 100 µM
same,TGI,[10]; read-out: TGI,45.1 µM
same,GI50,[10]; read-out: pGI50 (converted),3.39 µM
same,CC50,[10]; [35],> 100 µM
same,TGI,[10]; read-out: pTGI (converted),44.7 µM
same,growth at 100 µM,[11],35%
same,growth at 1 µM,[12],95%
same,growth at 0.1 µM,[13],88%
same,growth at 1 µM,[14],97%
same,GI50,[15]; read-out: GI50,21 µM
same,CC50,[15]; [34],> 100 µM
same,TGI,[15]; read-out: TGI,> 100 µM
same,GI50,[15]; read-out: pGI50 (converted),20.9 µM
same,CC50,[15]; [35],> 100 µM
same,TGI,[15]; read-out: pTGI,> 100 µM
same,growth at 100 µM,[16],40%
same,GI50,[17]; read-out: GI50,> 100 µM
same,CC50,[17]; [34],> 100 µM
same,TGI,[17]; read-out: TGI,> 100 µM
same,GI50,[17]; read-out: pGI50 (converted),> 100 µM
same,CC50,[17]; [35],> 100 µM
same,TGI,[17]; read-out: pTGI (converted),> 100 µM
same,growth at 1000 µM,[18],-53%
same,GI50,[19]; read-out: GI50,9.1 µM
same,CC50,[19]; [34],> 100 µM
same,TGI,[19]; read-out: TGI,> 100 µM
same,GI50,[19]; read-out: pGI50 (converted),9.12 µM
same,CC50,[19]; [35],> 100 µM
same,TGI,[19]; read-out: pTGI (converted),> 100 µM
same,growth at 10 µM,[20],92%
same,growth at 0.1 µM,[21],104%
same,CC50,[22],> 100 µM
same,growth at 0.1 µM,[23],97%
same,growth at 1000 µM,[24],72%
same,growth at 0.1 µM,[25],96%
same,growth at 1 µM,[26],102%
same,growth at 10 µM,[27],83%
same,growth at 1 µM,[28],94%
same,growth at 100 µM,[29],47%
same,growth at 100 µM,[30],41%
same,growth at 100 µM,[31],16%
same,growth at 1000 µM,[32],62%
same,growth at 1000 µM,[33],-49%
CNC(=O)OC[C@H]1O[C@@H](n2cnc3c(NC(=O)Nc4ccccc4)ncnc32)[C@H](O[Si](C)(C)C(C)(C)C)[C@@H]1O[Si](C)(C)C(C)(C)C,growth at 10 µM,[3],94.6%
same,growth at 10 µM,[6],103%
same,growth at 10 µM,[8],104%
same,growth at 10 µM,[20],94.2%
same,growth at 10 µM,[27],52.6%

# — ChEMBL document CHEMBL1681651, “A broad spectrum anticancer nucleoside with selective toxicity against human colon cells in vitro” (2011)
